Assay results: PMC8745330, “Aromatic Sulfonamides including a Sulfonic Acid Tail: New Membrane Impermeant Carbonic Anhydrase Inhibitors for Targeting Selectively the Cancer-Associated Isoforms” (International Journal of Molecular Sciences, 2021)
Values joined by “and” are separate entries in the source; they are usually repeats but may differ in a detail not shown here. Identical values can stand only once.

Assays:
hCA I = biological target: T1, hCA I (Homo sapiens, UniProt P00915); test: stopped flow CO2 hydrase assay, CA I; assay type: biochemical; conditions: mean from 3 different assays, errors ±5–10%
T1 construct: made in house
Method: (§1) An Applied Photophysics stopped-flow instrument was used for assaying the CA catalyzed CO2 hydration activity. Phenol red (at a concentration of 0.2 mM) was used as an indicator, working at the absorbance maximum of 557 nm, with 20 mM HEPES (pH 7.5) as buffer, and 20 mM Na2SO4 (for maintaining constant the ionic strength), following the initial rates of the CA-catalyzed CO2 hydration reaction for a period of 10–100 s. The CO2 concentrations ranged from 1.7 to 17 mM for the determination of the kinetic parameters and inhibition constants. For each inhibitor, at least six traces of the initial 5–10% of the reaction were used for determining the initial velocity. The uncatalyzed rates were determined in the same manner and subtracted from the total observed rates. Stock solutions of inhibitor (0.1 mM) were prepared in distilled–deionized water, and dilutions up to 0.01 nM were done thereafter with the assay buffer. Inhibitor and enzyme solutions were preincubated together for 45 min at room temperature prior to assay in order to allow for the formation of the E–I complex. The inhibition constants were obtained by non-linear least-squares methods using PRISM 3 and the Cheng–Prusoff equation, as reported earlier, representing the mean from at least three different determinations. […] All CA isoforms were recombinant ones obtained in-house, as reported earlier.

hCA II = biological target: T2, hCA II (Homo sapiens, UniProt P00918); test: stopped flow CO2 hydrase assay, CA II; assay type: biochemical; conditions: mean from 3 different assays, errors ±5–10%
T2 construct: made in house
Method: as §1

hCA IV = biological target: T3, hCA IV (Homo sapiens, UniProt P22748); test: stopped flow CO2 hydrase assay, CA IV; assay type: biochemical; conditions: mean from 3 different assays, errors ±5–10%
T3 construct: made in house
Method: as §1

hCA IX = biological target: T4, hCA IX (Homo sapiens, UniProt Q16790); test: stopped flow CO2 hydrase assay, CA IX; assay type: biochemical; conditions: for Selectivity index (SI) CA I/CA IX / Selectivity index (SI) CA II/CA IX: ratio between KI values; for Ki: stopped flow CO2 hydrase assay, mean from 3 different assays, errors ±5–10%
T4 construct: made in house
Method: as §1

hCA XII = biological target: T5, hCA XII (Homo sapiens, UniProt O43570); test: stopped flow CO2 hydrase assay, CA XII; assay type: biochemical; conditions: for Selectivity index (SI) CA I/CA XII / Selectivity index (SI) CA II/CA XII: ratio between KI values; for Ki: stopped flow CO2 hydrase assay, mean from 3 different assays, errors ±5–10%
T5 construct: made in house
Method: as §1

[1] = Caco-2 cell viability by MTS; assay type: cell-based; conditions: human; Caco-2 cells, 50 μM, 2 h of exposure, MTS; data not shown
Method: (§2) The colorectal adenocarcinoma cell line Caco-2 was purchased from American Tissue Type Culture Collection (Manassas, VA, USA) and cultured in Dulbecco’s modified Eagle’s medium (DMEM) (Thermo Fisher Scientific, Rodano, Milan, Italy) with 20% fetal bovine serum (FBS) (Thermo Fisher Scientific, Rodano, Milan, Italy) and 100 U/mL penicillin–streptomycin (Thermo Fisher Scientific, Rodano, Milan, Italy) in 5% CO2 at 37 °C. Cell viability was determined by MTS after 2 h of exposure to the aliphatic sulfonate CAIs at 50 µM concentration, as previously described.

Caco-2 cells = test: Caco-2 cell viability by MTS; assay type: cell-based; conditions: 50 µM
Method: as §2

T1 sequence (P00915 whole entry): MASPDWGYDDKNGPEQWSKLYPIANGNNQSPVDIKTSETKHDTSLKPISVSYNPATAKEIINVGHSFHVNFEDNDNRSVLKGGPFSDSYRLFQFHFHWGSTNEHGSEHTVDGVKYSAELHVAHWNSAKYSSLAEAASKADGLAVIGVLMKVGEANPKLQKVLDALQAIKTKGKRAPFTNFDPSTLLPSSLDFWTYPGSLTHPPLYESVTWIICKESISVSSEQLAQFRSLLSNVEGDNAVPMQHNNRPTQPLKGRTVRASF
T3 sequence (P22748 19-312): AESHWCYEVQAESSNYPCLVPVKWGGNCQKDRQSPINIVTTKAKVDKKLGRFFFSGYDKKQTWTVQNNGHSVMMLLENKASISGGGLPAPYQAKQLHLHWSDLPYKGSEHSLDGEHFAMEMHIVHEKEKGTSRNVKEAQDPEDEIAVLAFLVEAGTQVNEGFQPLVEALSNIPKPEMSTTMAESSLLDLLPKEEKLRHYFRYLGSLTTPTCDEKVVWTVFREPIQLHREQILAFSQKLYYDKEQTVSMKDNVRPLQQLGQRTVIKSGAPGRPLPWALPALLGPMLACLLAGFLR
T5 sequence (O43570 25-354): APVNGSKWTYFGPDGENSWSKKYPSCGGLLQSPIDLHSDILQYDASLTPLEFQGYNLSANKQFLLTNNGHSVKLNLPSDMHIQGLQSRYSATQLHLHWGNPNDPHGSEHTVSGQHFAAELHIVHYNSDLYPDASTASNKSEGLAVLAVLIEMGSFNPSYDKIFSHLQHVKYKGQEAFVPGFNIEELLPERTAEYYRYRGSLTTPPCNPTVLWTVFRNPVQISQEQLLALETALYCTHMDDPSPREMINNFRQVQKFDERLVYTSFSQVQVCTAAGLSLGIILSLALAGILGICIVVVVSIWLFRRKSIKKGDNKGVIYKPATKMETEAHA

| Ki (hCA I) | Ki (hCA II) | Ki (hCA IV) | Selectivity index (SI) CA I/CA IX (hCA IX) | Selectivity index (SI) CA II/CA IX (hCA IX) | Ki (hCA IX) | Selectivity index (SI) CA I/CA XII (hCA XII) | Selectivity index (SI) CA II/CA XII (hCA XII) | Ki (hCA XII) | melting point | Molecule | viability at 2 h, 50 µM [1] | cell viability (Caco-2 cells) |
| --- | --- | --- | --- | --- | --- | --- | --- | --- | --- | --- | --- | --- |
| 0.458 µM | 0.0043 µM | 0.0563 µM | 143 | 1.3 | 0.0032 µM | 48 and 48.2 | 0.45 | 0.0095 µM | > 300 °C | NS(=O)(=O)c1ccc(C(=O)NCc2cn(CCCS(=O)(=O)[O-])nn2)cc1.[Na+] [Compound 33, Sodium 3-(4-((4-sulfamoylbenzamido)methyl)-1H-1,2,3-triazol-1-yl)propane-1-sulfonate] | > 95% | – |
| 0.622 µM | 0.0074 µM | 0.0635 µM | 9.1 | 0.11 | 0.0682 µM | 9.2 | 0.11 | 0.0676 µM | > 300 °C | NS(=O)(=O)c1ccc(NC(=O)NCc2cn(CCCS(=O)(=O)[O-])nn2)cc1.[Na+] [Compound 34, Sodium 3-(4-((3-(4-sulfamoylphenyl)ureido)methyl)-1H-1,2,3-triazol-1-yl)propane-1-sulfonate] | > 95% | – |
| 0.0516 µM | 0.0054 µM | 0.0367 µM | 0.95 | 0.10 | 0.0544 µM | 1.1 | 0.11 | 0.049 µM | > 300 °C | NS(=O)(=O)c1ccc(NC(=O)Nc2ccc(OCc3cn(CCCS(=O)(=O)[O-])nn3)cc2)cc1.[Na+] [Compound 38, Sodium 3-(4-((4-(3-(4-sulfamoylphenyl)ureido)phenoxy)methyl)-1H-1,2,3-triazol-1-yl)propane-1-sulfonate] | > 95% | – |
| > 10 µM | 0.0634 µM | 0.244 µM | >41 | 0.26 | 0.242 µM | >534 | 3.4 | 0.0187 µM | > 300 °C | CC(=O)Nc1cc(S(N)(=O)=O)ccc1OCc1cn(CCCS(=O)(=O)[O-])nn1.[Na+] [Compound 39, Sodium 3-(4-((2-acetamido-4-sulfamoylphenoxy)methyl)-1H-1,2,3-triazol-1-yl)propane-1-sulfonate] | > 95% | – |
| 0.149 µM | 0.0188 µM | 0.408 µM | 17 | 2.2 | 0.0086 µM | 3.4 | 0.44 | 0.0431 µM | – | Sodium 3-(4-(4-sulfamoylphenyl)-1H-1,2,3-triazol-1-yl)butane-1-sulfonate [Compound 41] | – | > 95% |
| 2.91 µM | 0.364 µM | 0.883 µM | 36 | 4.5 | 0.0799 µM | 855 | 107 | 0.0034 µM | – | Sodium 3-(4-(((4-sulfamoylphenyl)amino)methyl)-1H-1,2,3-triazol-1-yl)butane-1-sulfonate [Compound 43] | – | > 95% |
